# In patent publication US12208088B2 (Genentech, Inc., priority 2018, dated 2025):
# Molecular target: HPK1 (Homo sapiens (Human), UniProt Q92918)
# Assay: HPK1 Lantha binding assay ("Lanth")
# Conditions: binding assays; Morrison Ki fit
# Method in brief: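 Ki values are from Morrison-equation fitting of 665/615 nm TR-FRET signals, taking enzyme level, tracer level and tracer Kd into account. The assay mix held HPK1 (2 nM), Eu-anti-GST antibody (2 nM) and Tracer222 (15 nM). Incubations were two 1 h steps at 23 °C, on 5-fold serial compound dilutions.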
# Sequence of HPK1 (Q92918 1-346 limits assumed): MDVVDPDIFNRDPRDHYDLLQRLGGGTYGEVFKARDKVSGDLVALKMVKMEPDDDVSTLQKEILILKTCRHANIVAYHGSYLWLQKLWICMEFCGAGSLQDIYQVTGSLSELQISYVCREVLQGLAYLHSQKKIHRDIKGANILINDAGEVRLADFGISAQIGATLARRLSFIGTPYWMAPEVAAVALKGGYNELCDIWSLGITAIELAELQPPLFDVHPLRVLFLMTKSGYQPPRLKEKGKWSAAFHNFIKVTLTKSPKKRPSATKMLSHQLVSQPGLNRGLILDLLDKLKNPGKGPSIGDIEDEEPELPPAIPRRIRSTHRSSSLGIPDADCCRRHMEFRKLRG
row,Ki [nM],Compound
1,150,"CN(C)C(=O)c1c(N)ccc(-c2cnc3c(c2Cl)[C@]2(CC[C@H](CN)CC2)CN3)c1F [Compound 258b, 6-Amino-3-((1s,4s)-4-(aminomethyl)-4′-chloro-1′,2′-dihydrospiro[cyclohexane-1,3′-pyrrolo[2,3-b]pyridin]-5′-yl)-2-fluoro-N,N-dimethylbenzamide]"
2,38,"CN(Cc1cnn(C2CCNC2)c1)C(=O)c1cccc(-c2cnc3c(c2Cl)C2(CC=CC2)CN3)c1F (stereo not drawn) [Compound 260, 3-(4′-Chloro-1′,2′-dihydrospiro[cyclopentane-1,3′-pyrrolo[2,3-b]pyridin]-3-en-5′-yl)-2-fluoro-N-methyl-N-((1-(pyrrolidin-3-yl)-1H-pyrazol-4-yl)methyl)benzamide]"
3,12,"CN(Cc1cnn(CCO)c1)C(=O)c1cccc(-c2cnc3c(c2Cl)C2(CC=CC2)CN3)c1F [Compound 262, 3-(4′-Chloro-1′,2′-dihydrospiro[cyclopentane-1,3′-pyrrolo[2,3-b]pyridin]-3-en-5′-yl)-2-fluoro-N-((1-(2-hydroxyethyl)-1H-pyrazol-4-yl)methyl)-N-methylbenzamide]"
4,283,"CN(C)C(=O)C1(c2cccc(-c3cnc4c(c3Cl)C3(CC=CC3)CN4)c2)CC1 [Compound 263, 1-(3-(4′-Chloro-1′,2′-dihydrospiro[cyclopentane-1,3′-pyrrolo[2,3-b]pyridin]-3-en-5′-yl)phenyl)-N,N-dimethylcyclopropane-1-carboxamide]"
5,108,"NC(=O)C1(c2cccc(-c3cnc4c(c3Cl)C3(CC=CC3)CN4)c2F)CC1 [Compound 265, 1-(3-(4′-Chloro-1′,2′-dihydrospiro[cyclopentane-1,3′-pyrrolo[2,3-b]pyridin]-3-en-5′-yl)-2-fluorophenyl)cyclopropane-1-carboxamide]"
6,484,"O=C(N1CCOCC1)C1(c2cccc(-c3cnc4c(c3Cl)C3(CC=CC3)CN4)c2)CC1 [Compound 268, (1-(3-(4′-Chloro-1′,2′-dihydrospiro[cyclopentane-1,3′-pyrrolo[2,3-b]pyridin]-3-en-5′-yl)phenyl)cyclopropyl)(morpholino)methanone]"
7,191,"N#CCNC(=O)c1ccnc(-c2cccc(-c3cnc4c(c3Cl)C3(CC=CC3)CN4)c2F)c1 [Compound 269, 2-(3-(4′-Chloro-1′,2′-dihydrospiro[cyclopentane-1,3′-pyrrolo[2,3-b]pyridin]-3-en-5′-yl)-2-fluorophenyl)-N-(cyanomethyl)isonicotinamide]"
8,331,"CN(CC#N)C(=O)C1(c2cccc(-c3cnc4c(c3Cl)C3(CC=CC3)CN4)c2)CC1 [Compound 270, 1-(3-(4′-Chloro-1′,2′-dihydrospiro[cyclopentane-1,3′-pyrrolo[2,3-b]pyridin]-3-en-5′-yl)phenyl)-N-(cyanomethyl)-N-methylcyclopropane-1-carboxamide]"
9,44.8,"CN(C)C(=O)c1c(N)ccc(-c2cnc3c(c2Cl)[C@]2(CC[C@@H](S(C)(=O)=O)CC2)CN3)c1F [Compound 273a, 6-Amino-3-((1r,4r)-4′-chloro-4-(methylsulfonyl)-1′,2′-dihydrospiro[cyclohexane-1,3′-pyrrolo[2,3-b]pyridin]-5′-yl)-2-fluoro-N,N-dimethylbenzamide]"
10,252,"Clc1c(-c2ccc3[nH]nnc3c2)cnc2c1C1(CC=CC1)CN2 [Compound 276, 5′-(1H-Benzo[d][1,2,3]triazol-5-yl)-4′-chloro-1′,2′-dihydrospiro[cyclopentane-1,3′-pyrrolo[2,3-b]pyridin]-3-ene]"
11,342,"O=C1OCc2ccc(-c3cnc4c(c3)C3(CC3)CN4)cc21 [Compound 277, 6-(1′,2′-dihydrospiro[cyclopropane-1,3′-pyrrolo[2,3-b]pyridin]-5′-yl)isobenzofuran-1(3H)-one]"
12,281,"CCC1(O)C(=O)Nc2ccc(-c3cnc4c(c3)C3(CC3)CN4)cc21 (stereo not drawn) [Compound 278, 5-(1′,2′-dihydrospiro[cyclopropane-1,3′-pyrrolo[2,3-b]pyridin]-5′-yl)-3-ethyl-3-hydroxyindolin-2-one]"
13,41.8,"CC1(C#N)C(=O)Nc2ccc(-c3cnc4c(c3)C3(CC3)CN4)cc21 (stereo not drawn) [Compound 279, 5-(1′,2′-dihydrospiro[cyclopropane-1,3′-pyrrolo[2,3-b]pyridin]-5′-yl)-3-methyl-2-oxoindoline-3-carbonitrile]"
14,144,"CC1(C(N)=O)C(=O)Nc2ccc(-c3cnc4c(c3Cl)C3(CC3)CN4)cc21 (stereo not drawn) [Compound 281, 5-(4′-chloro-1′,2′-dihydrospiro[cyclopropane-1,3′-pyrrolo[2,3-b]pyridin]-5′-yl)-3-methyl-2-oxoindoline-3-carboxamide]"
15,217,"CC1(C#N)C(=O)Nc2ccc(-c3cnc4c(c3Cl)C3(CC3)CN4)cc21 (stereo not drawn) [Compound 282, 5-(4′-chloro-1′,2′-dihydrospiro[cyclopropane-1,3′-pyrrolo[2,3-b]pyridin]-5′-yl)-3-methyl-2-oxoindoline-3-carbonitrile]"
16,629,"Clc1c(-c2cccc3[nH]ccc23)cnc2c1C1(CC=CC1)CN2 [Compound 284, 4-Chloro-5′-(1H-indol-4-yl)-1′,2′-dihydrospiro[cyclopentane-1,3′-pyrrolo[2,3-b]pyridin]-3-ene]"

row,Ki [nM],Compound
1,375,"Clc1c(-c2ccc3[nH]ncc3c2)cnc2c1C1(CC=CC1)CN2 [Compound 285, 4-Chloro-5′-(1H-indazol-5-yl)-1′,2′-dihydrospiro[cyclopentane-1,3′-pyrrolo[2,3-b]pyridin]-3-ene]"
2,120,"Clc1c(-c2cccc3[nH]ncc23)cnc2c1C1(CC=CC1)CN2 [Compound 286, 4-Chloro-5′-(1H-indazol-4-yl)-1′,2′-dihydrospiro[cyclopentane-1,3′-pyrrolo[2,3-b]pyridin]-3-ene]"
3,638,"Clc1c(-c2ccc3[nH]ccc3c2)cnc2c1C1(CC=CC1)CN2 [Compound 287, 4-Chloro-5′-(1H-indol-5-yl)-1′,2′-dihydrospiro[cyclopentane-1,3′-pyrrolo[2,3-b]pyridin]-3-ene]"
4,16,"CN(C)C(=O)c1nc(-c2cnc3c(c2Cl)[C@]2(CC[C@](C)(C#N)C2)CN3)ccc1N [Compound 288, 3-Amino-6-((1R,3 S)-4′-chloro-3-cyano-3-methyl-1′,2′-dihydrospiro[cyclopentane-1,3′-pyrrolo[2,3-b]pyridin]-5′-yl)-N,N-dimethylpicolinamide]"
5,215,"Nc1cc(-c2cnc3c(c2)C2(CC2)CN3)nc(N2CCCOC2=O)n1 [Compound 289, 3-(4-amino-6-(1′,2′-dihydrospiro[cyclopropane-1,3′-pyrrolo[2,3-b]pyridin]-5′-yl)pyrimidin-2-yl)-1,3-oxazinan-2-one]"
6,559,"Nc1ccc(-c2cnc3c(c2)C2(CC2)CN3)nc1C(=O)N1CC[C@H](O)C1 [Compound 290a, (S)-(3-amino-6-(1′,2′-dihydrospiro[cyclopropane-1,3′-pyrrolo[2,3-b]pyridin]-5′-yl)pyridin-2-yl)(3-hydroxypyrrolidin-1-yl)methanone]"
7,895,"Nc1ccc(-c2cnc3c(c2)C2(CC2)CN3)nc1C(=O)N1CC[C@@H](O)C1 [Compound 290b, (R)-(3-amino-6-(1′,2′-dihydrospiro[cyclopropane-1,3′-pyrrolo[2,3-b]pyridin]-5′-yl)pyridin-2-yl)(3-hydroxypyrrolidin-1-yl)methanone]"
8,236,"CN(C)C(=O)CNc1ccc(-c2cnc3c(c2)C2(CC2)CN3)cn1 [Compound 291, 2-((5-(1′,2′-dihydrospiro[cyclopropane-1,3′-pyrrolo[2,3-b]pyridin]-5′-yl)pyridin-2-yl)amino)-N,N-dimethylacetamide]"
9,127,"Nc1cc(-c2cnc3c(c2)C2(CC2)CN3)nc(N2CCOC2=O)c1 [Compound 292, 3-(4-amino-6-(1′,2′-dihydrospiro[cyclopropane-1,3′-pyrrolo[2,3-b]pyridin]-5′-yl)pyridin-2-yl)oxazolidin-2-one]"
10,47.4,"Nc1cc(-c2cnc3c(c2)C2(CC2)CN3)nc(N2CCCOC2=O)c1 [Compound 293, 3-(4-amino-6-(1′,2′-dihydrospiro[cyclopropane-1,3′-pyrrolo[2,3-b]pyridin]-5′-yl)pyridin-2-yl)-1,3-oxazinan-2-one]"
11,309,"CN(C)C(=O)c1cc(N)cc(-c2cnc3c(c2)C2(CC2)CN3)n1 [Compound 294, 4-amino-6-(1′,2′-dihydrospiro[cyclopropane-1,3′-pyrrolo[2,3-b]pyridin]-5′-yl)-N,N-dimethylpicolinamide]"
12,387,"Nc1cc(-c2cnc3c(c2)C2(CC2)CN3)nc(-c2ncccn2)c1 [Compound 295, 2-(1′,2′-dihydrospiro[cyclopropane-1,3′-pyrrolo[2,3-b]pyridin]-5′-yl)-6-(pyrimidin-2-yl)pyridin-4-amine]"
13,11.4,"Cn1cccc(-c2cc(-c3cnc4c(c3Cl)C3(CC3)CN4)cc(N)n2)c1=O [Compound 296, 6-amino-4-(4′-chloro-1′,2′-dihydrospiro[cyclopropane-1,3′-pyrrolo[2,3-b]pyridin]-5′-yl)-1′-methyl-[2,3′-bipyridin]-2′(1′H)-one]"
14,57.6,"CN(C)C(=O)c1cccc2c(-c3cnc4c(c3)C3(CC3)CN4)c[nH]c12 [Compound 297, 3-(1′,2′-Dihydrospiro[cyclopropane-1,3′-pyrrolo[2,3-b]pyridin]-5′-yl)-N,N-dimethyl-1H-indole-7-carboxamide]"
15,52.3,"CN(C)C(=O)c1cccc2c(-c3cnc4c(c3Cl)C3(CC3)CN4)c[nH]c12 [Compound 298, 3-(4′-Chloro-1′,2′-dihydrospiro[cyclopropane-1,3′-pyrrolo[2,3-b]pyridin]-5′-yl)-N,N-dimethyl-1H-indole-7-carboxamide]"
16,88.9,"O=C1CCCCN1c1cccc2c(-c3cnc4c(c3)C3(CC3)CN4)c[nH]c12 [Compound 299, 1-(3-(1′,2′-Dihydrospiro[cyclopropane-1,3′-pyrrolo[2,3-b]pyridin]-5′-yl)-1H-indol-7-yl)piperidin-2-one]"

row,Compound,Ki [nM]
1,"O=C1Nc2ccc(-c3cnc4c(c3Cl)C3(CC3)CN4)cc2C1(O)C1CC1 (stereo not drawn) [Compound 280, 5-(4′-chloro-1′,2′-dihydrospiro[cyclopropane-1,3′-pyrrolo[2,3-b]pyridin]-5′-yl)-3-cyclopropyl-3-hydroxyindolin-2-one]",179
